In patent US11760716B2, “Drug crystallization under microgravity conditions” (SPACEPHARMA R&D ISRAEL LTD., priority 2018, dated 2023):

Tests used:
[1] = Highest concentration of vilanterol dissolvable in ethanol at 37° C.; format: physicochemical; settings: ethanol as the solvent
Procedure: In order to obtain optimal results in space, adjustment of the Vilanterol crystallization protocol to fit the system of the invention, and vice versa, was required. The original main compartment volume ranged between 0.1 to 1 ml. To maximize the amount of drug used in the experiment, and still meet the safety limitation approved by NASA, the main compartment (2) size was increased to 2 ml. The vilanterol concentration was adjusted according to the maximum temperature in which the payload could be stored on the ISS (37° C.).

[2] = Crystal width from scanning electron microscope micrographs (FIG. 3); format: physicochemical
Procedure: Gradual cooling of the vilanterol ethanolic solution (25 mg/ml) in rubber container (4), placed in one storage compartment (3), was carried out by reducing the temperature from 37° C. to 4° C. by storing the container in a refrigerator inside the ISS until the return to Earth. The results obtained upon return to Earth show the vilanterol space grown crystals in rubber container (4).
Vilanterol (250 mg) was dissolved in 10 ml ethanol to result in a vilanterol solution having a final concentration of 25 mg/ml. Main compartment (2) of cassette (1) (FIG. 1A) was filled with 2 ml of the prepared vilanterol/ethanol solution. In addition, one rubber container (4), placed in one storage compartment (3), was filled with 1 ml heptane (anti-solvent). Cassette (1) was kept at 37° C.
After 10 days from launch into space, one plunger was released thereby activating one rubber container (4) in one storage compartment (3), allowing 1 ml of heptane to flow into main compartment (2), which, as mentioned above, comprises the vilanterol/ethanol solution. […]
The experiments performed in space on board of the ISS yielded crystals that were substantially larger and of higher crystalline order compared to their Earth-grown equivalents. […] The quantity of material manufactured in orbit was sufficient for complete characterization study and further processing tests. […]

With `OCc1cc([C@@H](O)CNCCCCCCOCCOCc2c(Cl)cccc2Cl)ccc1O` [vilanterol, 4-{(1R)-2-[(6-{2-[(2,6-dichlorobenzyl)oxy]ethoxy}hexyl)amino]-1-hydroxyethyl}-2-(hydroxymethyl)phenol] the “highest concentration of vilanterol that could be dissolved” value [1] was 2.5 % w/v, the width of crystals ([2]; crystals crystalized in space under microgravity (FIG. 3, right hand panel)) was 10-20 microns and the width of crystals ([2]; crystals crystalized on Earth, 1 g (FIG. 3, left hand panel)) was “a few”.
